Assays:
Assay in all cases: BIO3-BIO1 mutant enzyme activity in the presence of herbicide, percentage inhibition (fluorometric DAPA assay)
Assay type in all cases: biochemical
Settings in all cases: read-out: percentage inhibition
[1] = target: T1, Arabidopsis thaliana BIO3-BIO1 (BioDA) mutants (Arabidopsis thaliana, UniProt B0F481, A609F)
T1 construct: with the predicted N-terminal mitochondrial transit peptide removed; 6xHis-tag (N); thrombin cleavage site (N); made in house; host or cells: E. coli BL21 (DE3) bioA
Method in brief: (§1)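 Percentage inhibition compares activity at one of three herbicide concentrations against DMSO, from o-phthalaldehyde-derivatised DAPA fluorescence (ex 410, em 470 nm). Purified N-His BIO3-BIO1 variants (50 nM, E. coli-expressed) saw herbicide 10 min at 20 °C in pH 8.6 EPPS buffer, then 20 μM KAPA plus 100 μM spermidine for 75 min at 20 °C.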

[2] = target: T2, Arabidopsis thaliana BIO3-BIO1 (BioDA) mutants (Arabidopsis thaliana, UniProt B0F481, F348Q)
T2 construct: with the predicted N-terminal mitochondrial transit peptide removed; 6xHis-tag (N); thrombin cleavage site (N); made in house; host or cells: E. coli BL21 (DE3) bioA
Method in brief: as §1

[3] = target: T3, Arabidopsis thaliana BIO3-BIO1 (BioDA) mutants (Arabidopsis thaliana, UniProt B0F481, P421L)
T3 construct: with the predicted N-terminal mitochondrial transit peptide removed; 6xHis-tag (N); thrombin cleavage site (N); made in house; host or cells: E. coli BL21 (DE3) bioA
Method in brief: as §1

[4] = target: T4, Arabidopsis thaliana BIO3-BIO1 (BioDA) mutants (Arabidopsis thaliana, UniProt B0F481, P510C)
T4 construct: with the predicted N-terminal mitochondrial transit peptide removed; 6xHis-tag (N); thrombin cleavage site (N); made in house; host or cells: E. coli BL21 (DE3) bioA
Method in brief: as §1

[5] = target: T5, Arabidopsis thaliana BIO3-BIO1 (BioDA) mutants (Arabidopsis thaliana, UniProt B0F481, P510E)
T5 construct: with the predicted N-terminal mitochondrial transit peptide removed; 6xHis-tag (N); thrombin cleavage site (N); made in house; host or cells: E. coli BL21 (DE3) bioA
Method in brief: as §1

[6] = target: T6, Arabidopsis thaliana BIO3-BIO1 (BioDA) mutants (Arabidopsis thaliana, UniProt B0F481, S509I)
T6 construct: with the predicted N-terminal mitochondrial transit peptide removed; 6xHis-tag (N); thrombin cleavage site (N); made in house; host or cells: E. coli BL21 (DE3) bioA
Method in brief: as §1

[7] = target: T7, Arabidopsis thaliana BIO3-BIO1 (BioDA) mutants (Arabidopsis thaliana, UniProt B0F481, S509W)
T7 construct: with the predicted N-terminal mitochondrial transit peptide removed; 6xHis-tag (N); thrombin cleavage site (N); made in house; host or cells: E. coli BL21 (DE3) bioA
Method in brief: as §1

[8] = target: T8, Arabidopsis thaliana BIO3-BIO1 (BioDA) mutants (Arabidopsis thaliana, UniProt B0F481, T393V)
T8 construct: with the predicted N-terminal mitochondrial transit peptide removed; 6xHis-tag (N); thrombin cleavage site (N); made in house; host or cells: E. coli BL21 (DE3) bioA
Method in brief: as §1

[9] = target: T9, Arabidopsis thaliana BIO3-BIO1 (BioDA) mutants (Arabidopsis thaliana, UniProt B0F481, T512I)
T9 construct: with the predicted N-terminal mitochondrial transit peptide removed; 6xHis-tag (N); thrombin cleavage site (N); made in house; host or cells: E. coli BL21 (DE3) bioA
Method in brief: as §1

[10] = target: T10, Arabidopsis thaliana BIO3-BIO1 (BioDA) mutants (Arabidopsis thaliana, UniProt B0F481, V354E)
T10 construct: with the predicted N-terminal mitochondrial transit peptide removed; 6xHis-tag (N); thrombin cleavage site (N); made in house; host or cells: E. coli BL21 (DE3) bioA
Method in brief: as §1

[11] = target: T11, Arabidopsis thaliana BIO3-BIO1 (BioDA) mutants (Arabidopsis thaliana, UniProt B0F481, Y511C)
T11 construct: with the predicted N-terminal mitochondrial transit peptide removed; 6xHis-tag (N); thrombin cleavage site (N); made in house; host or cells: E. coli BL21 (DE3) bioA
Method in brief: as §1

[12] = target: T12, Arabidopsis thaliana BIO3-BIO1 (BioDA) mutants (Arabidopsis thaliana, UniProt B0F481, Y511Q)
T12 construct: with the predicted N-terminal mitochondrial transit peptide removed; 6xHis-tag (N); thrombin cleavage site (N); made in house; host or cells: E. coli BL21 (DE3) bioA
Method in brief: as §1

T8 sequence (B0F481 23-833 T393V): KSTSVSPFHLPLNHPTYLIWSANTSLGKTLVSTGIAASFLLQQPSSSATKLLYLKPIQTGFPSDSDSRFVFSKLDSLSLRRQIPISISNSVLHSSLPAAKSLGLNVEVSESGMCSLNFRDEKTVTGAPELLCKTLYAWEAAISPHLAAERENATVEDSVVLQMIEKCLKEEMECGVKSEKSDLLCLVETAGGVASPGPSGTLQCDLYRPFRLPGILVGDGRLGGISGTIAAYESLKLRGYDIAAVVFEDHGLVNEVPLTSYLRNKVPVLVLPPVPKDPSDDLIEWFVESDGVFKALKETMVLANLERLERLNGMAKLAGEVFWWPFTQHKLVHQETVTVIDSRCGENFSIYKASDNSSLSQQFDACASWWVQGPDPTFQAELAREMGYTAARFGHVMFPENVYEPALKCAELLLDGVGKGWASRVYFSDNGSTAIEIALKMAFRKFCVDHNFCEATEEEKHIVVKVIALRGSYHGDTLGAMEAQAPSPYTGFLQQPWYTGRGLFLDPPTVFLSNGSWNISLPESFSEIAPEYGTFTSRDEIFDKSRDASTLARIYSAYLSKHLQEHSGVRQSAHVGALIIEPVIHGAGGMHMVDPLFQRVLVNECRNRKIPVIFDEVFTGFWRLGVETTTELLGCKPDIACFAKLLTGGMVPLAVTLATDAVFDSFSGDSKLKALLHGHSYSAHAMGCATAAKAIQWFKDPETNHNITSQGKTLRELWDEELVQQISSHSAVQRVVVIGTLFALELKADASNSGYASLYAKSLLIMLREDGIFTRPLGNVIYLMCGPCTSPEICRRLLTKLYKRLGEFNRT
T9 sequence (B0F481 23-833 T512I): as the sequence (B0F481 23-833 T393V) above, with V371T, T490I counted along it
T2 sequence (B0F481 23-833 F348Q): as the sequence (B0F481 23-833 T393V) above, with F326Q, V371T counted along it
T1 sequence (B0F481 23-833 A609F): as the sequence (B0F481 23-833 T393V) above, with V371T, A587F counted along it
T11 sequence (B0F481 23-833 Y511C): as the sequence (B0F481 23-833 T393V) above, with V371T, Y489C counted along it
T7 sequence (B0F481 23-833 S509W): as the sequence (B0F481 23-833 T393V) above, with V371T, S487W counted along it
T6 sequence (B0F481 23-833 S509I): as the sequence (B0F481 23-833 T393V) above, with V371T, S487I counted along it
T4 sequence (B0F481 23-833 P510C): as the sequence (B0F481 23-833 T393V) above, with V371T, P488C counted along it
T5 sequence (B0F481 23-833 P510E): as the sequence (B0F481 23-833 T393V) above, with V371T, P488E counted along it
T3 sequence (B0F481 23-833 P421L): as the sequence (B0F481 23-833 T393V) above, with V371T, P399L counted along it
T10 sequence (B0F481 23-833 V354E): as the sequence (B0F481 23-833 T393V) above, with V332E, V371T counted along it
T12 sequence (B0F481 23-833 Y511Q): as the sequence (B0F481 23-833 T393V) above, with V371T, Y489Q counted along it

SMILES | inhibition at 1 µM [1] | inhibition at 1 µM [2] | inhibition at 1 µM [3] | inhibition at 1 µM [4] | inhibition at 1 µM [5] | inhibition at 1 µM [6] | inhibition at 1 µM [7] | inhibition at 1 µM [8] | inhibition at 1 µM [9] | inhibition at 1 µM [10] | inhibition at 1 µM [11] | inhibition at 1 µM [12] | inhibition at 0.2 µM [1] | inhibition at 5 µM [1] | inhibition at 0.2 µM [2] | inhibition at 5 µM [2] | inhibition at 0.2 µM [3] | inhibition at 5 µM [3] | inhibition at 0.2 µM [4] | inhibition at 5 µM [4] | further results
CCOC(=O)c1nn(-c2ccc3c(c2)OC(F)(F)C(F)(F)O3)c2cccc(C(C)=O)c2c1=O [Compound A, ethyl 5-acetyl-4-oxo-1-(2,2,3,3-tetrafluoro-1,4-benzodioxin-6-yl)cinnoline-3-carboxylate] | 6% | 7% | 61% | 20% | 26% | 0% | 0% | 10% | 37% | 25% | 0% | 21% |  |  |  |  |  |  |  |  | 
CCn1c(-c2ccc(Cl)c(Cl)c2)c(C(=O)O)c(=O)c2cc(F)ccc21 [Compound M, 2-(3,4-dichlorophenyl)-1-ethyl-6-fluoro-4-oxo-quinoline-3-carboxylic acid] | 26% | 0% | 6% | 36% | 25% | 65% | 60% | 19% | 85% | 0% | 67% | 87% | 19% | 66% | 0% | 16% | 0% | 31% | 9% | 69% | inhibition at 0.2 µM [5]: 0%; inhibition at 5 µM [5]: 61%; inhibition at 0.2 µM [6]: 30%; inhibition at 5 µM [6]: 92%; inhibition at 0.2 µM [7]: 0%; inhibition at 5 µM [7]: 95%; inhibition at 0.2 µM [8]: 0%; inhibition at 5 µM [8]: 46%; inhibition at 0.2 µM [9]: 48%; inhibition at 5 µM [9]: 96%; inhibition at 0.2 µM [10]: 0%; inhibition at 5 µM [10]: 23%; inhibition at 0.2 µM [11]: 16%; inhibition at 5 µM [11]: 92%; inhibition at 0.2 µM [12]: 54%; inhibition at 5 µM [12]: 95%
CCn1c(Cn2ccc(C(F)(F)F)n2)cc(=O)c(C(=O)O)c1-c1ccc(Cl)c(Cl)c1 [Compound L, 2-(3,4-dichlorophenyl)-1-ethyl-4-oxo-6-[[3-(trifluoromethyl)pyrazol-1-yl]methyl]pyridine-3-carboxylic acid] |  |  |  |  |  |  |  |  |  |  |  |  |  |  |  |  |  |  |  |  | inhibition at 0.01 µM [1]: 10%; inhibition at 0.075 µM [1]: 0%; inhibition at 0.5 µM [1]: 16%; inhibition at 0.01 µM [2]: 0%; inhibition at 0.075 µM [2]: 0%; inhibition at 0.5 µM [2]: 3%; inhibition at 0.01 µM [3]: 0%; inhibition at 0.075 µM [3]: 10%; inhibition at 0.5 µM [3]: 45%; inhibition at 0.01 µM [4]: 0%; inhibition at 0.075 µM [4]: 38%; inhibition at 0.5 µM [4]: 77%; inhibition at 0.01 µM [5]: 0%; inhibition at 0.075 µM [5]: 11%; inhibition at 0.5 µM [5]: 59%
CCn1c(C)c(-c2ccc(F)cc2F)c(=O)c(C(=O)O)c1-c1ccc(Cl)c(Cl)c1 [Compound C, 2-(3,4-dichlorophenyl)-5-(2,4-difluorophenyl)-1-ethyl-6-methyl-4-oxo-pyridine-3-carboxylic acid] | 5% | 0% | 35% | 53% | 38% | 84% | 92% | 31% | 96% | 0% | 86% | 97% | 5% | 20% | 3% | 25% | 4% | 67% | 13% | 78% | inhibition at 0.2 µM [5]: 8%; inhibition at 5 µM [5]: 74%; inhibition at 0.2 µM [6]: 38%; inhibition at 5 µM [6]: 99%; inhibition at 0.2 µM [7]: 14%; inhibition at 5 µM [7]: 103%; inhibition at 0.2 µM [8]: 3%; inhibition at 5 µM [8]: 70%; inhibition at 0.2 µM [9]: 60%; inhibition at 5 µM [9]: 99%; inhibition at 0.2 µM [10]: 0%; inhibition at 5 µM [10]: 39%; inhibition at 0.2 µM [11]: 33%; inhibition at 5 µM [11]: 98%; inhibition at 0.2 µM [12]: 78%; inhibition at 5 µM [12]: 98%

— patent publication US20260226493A1, “HERBICIDE RESISTANT PLANTS” (SYNGENTA CROP PROTECTION AG, priority 2023, published 2026)
